Assays:
[1] = target: ACC2 (Homo sapiens, UniProt O00763); test: in vitro ACC2 inhibition assay (ADP-Glo); type: biochemical; conditions: 5 nM ACC2, 20 μM ATP, 20 μM acetyl-CoA, 60 min room temperature, luminescence
Method: In Vitro Acetyl-CoA Carboxylase (ACC) Inhibition Assay
An exemplary procedure for the in vitro ACC inhibition assay, which can be used to determine the inhibitory action of compounds of the invention toward either ACCT or ACC2, follows. The ADP-Glo™ Kinase Assay kit from Promega is used. The ADP-Glo™ Kinase Assay is a luminescent ADP detection assay to measure enzymatic activity by quantifying the amount of ADP produced during an enzyme reaction. The assay is performed in two steps; first, after the enzyme reaction, an equal volume of ADP-Glo™ Reagent is added to terminate the reaction and deplete the remaining ATP. Second, the Kinase Detection Reagent is added to simultaneously convert ADP to ATP and allow the newly synthesized ATP to be measured using a luciferase/luciferin reaction. Luminescence can be correlated to ADP concentrations by using an ATP-to-ADP conversion curve. The detailed procedure is as follows. 50 μL of the compound being tested (600 uM in DMSO) is added to a 384-well dilution plate. The compound is diluted 1:3 in succession in DMSO for each row for 11 wells. […] is added to 384-well white Optiplate assay plate. 0.5 μL diluted compound solution in each column from step 2 is added to the assay plate, each row containing 2 replicates. For the last 2 rows, add 0.5 μL negative control (DMSO) in one row and 0.5 μL positive control (compound I-97) in the other. The plates are incubated at room temperature for 15 minutes. 5 μL substrate working solution is added to each well to initiate reaction. Final ACC2 reaction concentrations consist of: 5 nM ACC2, 20 μM ATP, 20 μM acetyl-CoA, 12 mM NaHCO3, 0.01% Brij35, 2 mM DTT, 5% DMSO, test compound concentrations: 30 μM, 10 μM, 3.33 μM, 1.11 μM, 0.37 μM, 0.123 μM, 0.0411 μM, 0.0137 μM, 0.00457 μM, 0.00152 μM, and 0.00051 μM. Plates are incubated at room temperature for 60 minutes. 10 μL ADP glo reagent is added. Plates are incubated at room temperature for 40 minutes. 20 μL kinase detection reagent is added. Plates are incubated at room temperature for 40 minutes, then read on a Perkin Elmer EnVision 2104 plate reader for luminescence as Relative Light Units (RLU).
Data for each concentration, as well as the positive and negative controls are averaged, and the standard deviation calculated. Percent inhibition is calculated by the formula: 100×(average negative control−compound)/(average negative control−average positive control). The IC50 for each compound is calculated by fitting the data with a non-linear regression equation: Y=Bottom+(Top-Bottom)/(1+10^((Log IC50−X)*HillSlope)), where X is the log of compound concentration and Y is percent inhibition.
The compound numbers correspond to the compound numbers in Table 1. Compounds having an activity designated as “AAA” provided an IC50≦0.1 μM; compounds having an activity designated as “AA” provided an IC50≦1 μM; compounds having an activity designated as “A” provided an IC50≦5 μM; compounds having an activity designated as “B” provided an IC50 of 5-20 μM; compounds having an activity designated as “C” provided an IC50 of 20-50 μM; and compounds having an activity designated as “D” provided an IC50≧50 μM

[2] = system: ACC2; conditions: ACC2 isolated from rat, mouse, monkey and human; cited from earlier work
[3] = system: ACC1; conditions: ACC1 isolated from rat, mouse, monkey and human; cited from earlier work

Chain of ACC2 (Homo sapiens, UniProt O00763) (O00763 whole entry, species assumed): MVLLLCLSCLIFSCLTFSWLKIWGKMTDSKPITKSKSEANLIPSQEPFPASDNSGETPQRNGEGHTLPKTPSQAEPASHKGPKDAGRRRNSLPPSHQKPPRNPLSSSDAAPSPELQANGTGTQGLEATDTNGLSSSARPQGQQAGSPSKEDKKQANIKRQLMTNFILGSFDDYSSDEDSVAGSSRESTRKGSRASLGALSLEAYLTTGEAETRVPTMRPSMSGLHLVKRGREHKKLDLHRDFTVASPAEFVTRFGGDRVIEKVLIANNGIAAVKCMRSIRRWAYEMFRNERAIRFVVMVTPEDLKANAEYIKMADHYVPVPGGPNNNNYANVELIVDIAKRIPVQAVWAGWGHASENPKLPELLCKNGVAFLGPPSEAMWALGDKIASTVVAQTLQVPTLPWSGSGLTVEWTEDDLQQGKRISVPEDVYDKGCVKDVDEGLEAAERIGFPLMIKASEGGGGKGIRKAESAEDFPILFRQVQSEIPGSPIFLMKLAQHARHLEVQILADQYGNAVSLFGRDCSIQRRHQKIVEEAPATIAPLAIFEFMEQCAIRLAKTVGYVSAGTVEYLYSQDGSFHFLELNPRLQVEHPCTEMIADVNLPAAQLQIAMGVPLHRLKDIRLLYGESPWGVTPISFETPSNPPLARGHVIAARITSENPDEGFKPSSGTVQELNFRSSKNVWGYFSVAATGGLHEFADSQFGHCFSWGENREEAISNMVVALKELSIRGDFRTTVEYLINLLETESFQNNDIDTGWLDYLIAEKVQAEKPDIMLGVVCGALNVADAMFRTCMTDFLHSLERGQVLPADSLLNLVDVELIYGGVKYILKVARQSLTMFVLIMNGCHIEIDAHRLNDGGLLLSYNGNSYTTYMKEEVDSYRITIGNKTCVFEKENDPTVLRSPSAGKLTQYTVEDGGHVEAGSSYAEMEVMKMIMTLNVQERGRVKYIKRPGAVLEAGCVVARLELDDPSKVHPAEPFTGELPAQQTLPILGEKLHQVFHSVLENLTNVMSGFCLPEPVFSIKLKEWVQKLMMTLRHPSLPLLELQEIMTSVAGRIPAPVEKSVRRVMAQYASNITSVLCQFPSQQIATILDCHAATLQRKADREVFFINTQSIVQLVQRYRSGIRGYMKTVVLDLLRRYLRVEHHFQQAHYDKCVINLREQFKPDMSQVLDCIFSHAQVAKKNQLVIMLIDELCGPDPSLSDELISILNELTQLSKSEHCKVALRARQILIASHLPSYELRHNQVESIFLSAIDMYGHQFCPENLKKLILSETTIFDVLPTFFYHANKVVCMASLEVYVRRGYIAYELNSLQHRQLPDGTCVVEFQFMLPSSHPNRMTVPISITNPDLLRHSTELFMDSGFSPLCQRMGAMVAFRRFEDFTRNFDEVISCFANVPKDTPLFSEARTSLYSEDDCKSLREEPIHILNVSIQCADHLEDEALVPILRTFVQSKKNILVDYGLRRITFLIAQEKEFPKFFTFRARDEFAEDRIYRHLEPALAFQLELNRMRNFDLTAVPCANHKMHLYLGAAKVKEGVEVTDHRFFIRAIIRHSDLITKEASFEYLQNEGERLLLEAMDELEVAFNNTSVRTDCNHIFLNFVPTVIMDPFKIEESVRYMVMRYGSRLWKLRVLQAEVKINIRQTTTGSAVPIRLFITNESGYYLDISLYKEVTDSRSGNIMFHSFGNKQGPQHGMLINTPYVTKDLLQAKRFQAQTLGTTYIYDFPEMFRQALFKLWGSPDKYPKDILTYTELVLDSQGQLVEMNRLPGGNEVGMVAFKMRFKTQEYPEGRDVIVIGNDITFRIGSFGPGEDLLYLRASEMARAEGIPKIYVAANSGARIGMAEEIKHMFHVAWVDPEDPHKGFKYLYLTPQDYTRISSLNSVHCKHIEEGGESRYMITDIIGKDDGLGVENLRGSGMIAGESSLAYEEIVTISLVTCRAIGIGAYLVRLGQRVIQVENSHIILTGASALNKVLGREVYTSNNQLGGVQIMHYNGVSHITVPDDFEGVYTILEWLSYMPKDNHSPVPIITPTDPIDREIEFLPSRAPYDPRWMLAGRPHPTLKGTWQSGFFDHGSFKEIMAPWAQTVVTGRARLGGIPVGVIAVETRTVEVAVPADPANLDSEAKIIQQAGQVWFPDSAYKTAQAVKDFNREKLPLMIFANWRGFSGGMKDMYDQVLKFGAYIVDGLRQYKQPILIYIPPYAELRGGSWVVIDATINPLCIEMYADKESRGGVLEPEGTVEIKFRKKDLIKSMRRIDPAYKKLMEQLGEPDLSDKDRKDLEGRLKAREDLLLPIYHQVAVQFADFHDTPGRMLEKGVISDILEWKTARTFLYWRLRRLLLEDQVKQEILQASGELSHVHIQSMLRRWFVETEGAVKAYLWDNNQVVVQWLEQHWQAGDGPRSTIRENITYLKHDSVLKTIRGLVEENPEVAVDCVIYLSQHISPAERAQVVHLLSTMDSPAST

Compound | IC50 [1] [µM] | IC50 [2] [µM] | IC50 [3] [µM]
COc1ccccc1[C@H](CN1C(=O)N(C(C)(C)C(=O)O)S(=O)(=O)c2c1sc(-c1ncco1)c2C)O[C@H]1CC[C@@H](O)CC1 [Compound I-47, 2-(4-((R)-2-(((1s,4S)-4-hydroxycyclohexyl)oxy)-2-(2-methoxyphenyl)ethyl)-7-methyl-6-(oxazol-2-yl)-1,1-dioxido-3-oxo-3,4-dihydro-2H-thieno[2,3-e][1,2,4]thiadiazin-2-yl)-2-methylpropanoic acid] | 5 to 20 |  | 
CCOC(=O)c1sc2c(c1C)S(=O)(=O)N(C(C)(C)C(=O)OCc1ccccc1)C(=O)N2C[C@H](OC(C)C)c1cc(F)ccc1OC [Compound I-48, (R)-ethyl 2-(1-(benzyloxy)-2-methyl-1-oxopropan-2-yl)-4-(2-(5-fluoro-2-methoxyphenyl)-2-isopropoxyethyl)-7-methyl-3-oxo-3,4-dihydro-2H-thieno[2,3-e][1,2,4]thiadiazine-6-carboxylate 1,1-dioxide] | 5 to 20 |  | 
COc1ccccc1[C@H](CN1C(=O)N(C(C)(C)C(=O)O)S(=O)(=O)c2c1sc(-c1ncco1)c2C)OC1CCOCC1 [Compound I-46, (R)-2-(4-(2-(2-methoxyphenyl)-2-((tetrahydro-2H-pyran-4-yl)oxy)ethyl)-7-methyl-6-(oxazol-2-yl)-1,1-dioxido-3-oxo-3,4-dihydro-2H-thieno[2,3-e][1,2,4]thiadiazin-2-yl)-2-methylpropanoic acid] | 5 to 20 |  | 
O=C(c1c2ccccc2cc2ccccc12)N1CCC(N2CCC[C@@H](C(=O)N3CCOCC3)C2)CC1 [CP-640186] |  | ~0.06 | ~0.06
COc1ccc(F)cc1[C@H](CN1C(=O)N(C(C)(C)C(=O)O)S(=O)(=O)c2c1sc(-c1ncco1)c2C)OC1CCOCC1 [Compound I-42, (R)-2-(4-(2-(5-fluoro-2-methoxyphenyl)-2-((tetrahydro-2H-pyran-4-yl)oxy)ethyl)-7-methyl-6-(oxazol-2-yl)-1,1-dioxido-3-oxo-3,4-dihydro-2H-thieno[2,3-e][1,2,4]thiadiazin-2-yl)-2-methylpropanoic acid] | ≤ 5 |  | 
COc1ccccc1CCc1nn(CC(=O)O)c(=O)c2c(C)c(-c3ncco3)sc12 [Compound I-49, 2-(7-(2-methoxyphenethyl)-3-methyl-2-(oxazol-2-yl)-4-oxothieno[2,3-d]pyridazin-5(4H)-yl)acetic acid] | ≥ 50 |  | 
COc1ccccc1CCN1c2sc(-c3ncco3)c(C)c2C(=O)N(CC(N)=O)S1(=O)=O [Compound I-44, 2-(1-(2-methoxyphenethyl)-5-methyl-6-(oxazol-2-yl)-2,2-dioxido-4-oxo-1H-thieno[2,3-c][1,2,6]thiadiazin-3(4H)-yl)acetamide] | 5 to 20 |  | 
COc1ccccc1CCN1c2sc(-c3ncco3)c(C)c2C(=O)N(CC(=O)O)S1(=O)=O [Compound I-43, 2-(1-(2-methoxyphenethyl)-5-methyl-6-(oxazol-2-yl)-2,2-dioxido-4-oxo-1H-thieno[2,3-c][1,2,6]thiadiazin-3(4H)-yl)acetic acid] | 5 to 20 |  | 
COc1ccc(F)cc1[C@H](CN1C(=O)N(C(C)(C)C(=O)O)S(=O)(=O)c2c1sc(-c1ncco1)c2C)OC(C)C [Compound I-45, (R)-2-(4-(2-(5-fluoro-2-methoxyphenyl)-2-isopropoxyethyl)-7-methyl-6-(oxazol-2-yl)-1,1-dioxido-3-oxo-3,4-dihydro-2H-thieno[2,3-e][1,2,4]thiadiazin-2-yl)-2-methylpropanoic acid] | 5 to 20 |  | 
2-(4-((R)-2-(5-fluoro-2-methoxyphenyl)-2-((tetrahydro-2H-pyran-4-yl)oxy)ethyl)-7-methyl-6-(oxazol-2-yl)-1,1-dioxido-3-oxo-3,4,4a,7a-tetra-hydro-2H-thieno[2,3-e][1,2,4]thiadiazin-2-yl)acetic acid [Compound I-41] | ≤ 0.1 |  | 
